For assay [1], the target named is T1, bovine lactadherin (fluorescein-labeled, purified from bovine milk) (Bos taurus, UniProt Q95114).
T1 construct: from tissue; host or cells: bovine milk
T1 sequence (Q95114 19-427): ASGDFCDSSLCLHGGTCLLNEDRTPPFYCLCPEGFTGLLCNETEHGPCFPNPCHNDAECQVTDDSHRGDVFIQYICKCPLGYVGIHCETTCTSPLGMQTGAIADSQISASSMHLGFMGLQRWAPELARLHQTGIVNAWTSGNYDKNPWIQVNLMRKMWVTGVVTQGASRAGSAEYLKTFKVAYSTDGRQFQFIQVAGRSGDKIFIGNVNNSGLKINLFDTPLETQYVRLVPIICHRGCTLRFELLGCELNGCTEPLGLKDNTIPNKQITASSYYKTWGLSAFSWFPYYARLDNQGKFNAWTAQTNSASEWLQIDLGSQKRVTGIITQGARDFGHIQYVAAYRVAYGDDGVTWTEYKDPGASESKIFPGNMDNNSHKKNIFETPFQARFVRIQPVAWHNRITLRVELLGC
The assay is described as follows: Competition of phospholipid vesicles with lipospheres for fluorescein-labeled lactadherin. It counts as binding. Conditions: for support of lactadherin binding: vesicles lacking Ptd-L-Ser, FIG. 4B; for effect on number of binding sites or affinity for lactadherin: extruded vesicles, 0-20% PE, 1% Ptd-L-Ser. How it is done: (§1) Lactadherin was purified from bovine milk as previously described (Reference 1). Lactadherin, 0.2 mg in 0.2 ml phosphate-buffered saline, was concentrated 10-fold by ultrafiltration with a Centricon YM-10 (Millipore, Bedford, Mass.) followed by dilution to the starting concentration into 0.1 M sodium carbonate buffer, pH 9.0. Fluorescein isothiocyanate (Molecular Probes, Eugene, Oreg.) 6 μl of 10 mg/ml solution in DMSO, was added to lactadherin and the mixture was incubated for one hour at RT in the dark. Free fluorescein was removed by gel filtration using a micro spin column equilibrated with 0.1 M sodium carbonate, 0.1 M betaine, 0.004% Tween-80, pH 9.0 (FluoReporter FITC Protein Labeling Kit, Molecular Probes, Eugene, Oreg.). Fluorescein-labeled lactadherin was concentrated approx. 10-fold by ultrafiltration using a Centricon YM-10, and diluted to approximately the original concentration in 0.15 M NaCl, 50 mM Tris-HCl, pH 7.5. Labeling efficiency was judged by comparison of absorbance at 490 nm to absorbance at 280 nm (correcting for fluorescein absorbance at 280 nm).
Phospholipid vesicles were prepared by evaporating chloroform from the desired phospholipids, resuspending in methylene chloride and re-evaporating twice under argon. Large multilamellar vesicles were prepared by gently swirling tris-buffered saline (50 mM Tris, 150 mM NaCl, pH 7.4) over the dried lipid suspension until all lipid was suspended. Some of the large multilamellar vesicles were then utilized to prepare small unilamellar vesicles by sonication in a high intensity bath sonicator (Laboratory Supplies, Inc. Hicksville, N.Y.) under argon until visually clear (approx. 20 min.). Large unilamellar vesicles were made by extruding large multilamellar vesicle suspensions 20 times through […] polycarbonate membranes (Millipore, Bedford, Mass.) in a High Pressure Extrusion Device (Sciema Technical Services, Vancouver, BC, Canada) under argon as described previously (Reference 39). Phospholipid concentration was determined by phosphorus assay (Reference 40). Vesicles were used fresh, or 1 ml aliquots were quick-frozen in liquid nitrogen, stored at −80° C., and thawed at 37° C.
(§2) Glass microspheres of 1.6 μm nominal diameter (Duke Scientific, Palo Alto, Calif.) were cleaned, size-restricted and covered with a phospholipid bilayer as previously described (Reference 17). Membranes supported by glass microspheres were washed three times in 0.15 M NaCl, 0.02 M Tris-HCl, 0.1% defatted bovine albumin, 10 μM egg PC as sonicated vesicles; stored at 4° C.; and used within 8 hours of synthesis. Fluorescein-labeled factor VIII (4 nM) was incubated with lactadherin or annexin V for 15 min at room temperature, the mixture was added to lipospheres for an additional 10 minutes, and membrane-bound fVIII was measured by flow cytometry. This procedure was performed on 150 μl aliquots with an approximate liposphere concentration of 1×10^6/ml using a Becton Dickinson FACSCalibur flow cytometer. Data acquisition was triggered by forward light scatter with all photomultipliers in the log mode. Noise was reduced during analysis by eliminating events with forward and side scatter values different from those characteristic of the lipospheres. Mean log fluorescence was converted to linear fluorescence for values depicted in the figures. Only experiments in which the fluorescence histogram indicated a log normal distribution, as judged by inspection, were analyzed quantitatively. […]

Assay [2] has as its system platelets. The assay is described as follows: Loss of NBD-PS fluorescence from stimulated platelets (PS exposure). Particulars: 10 μM A23187, 8 min. The class given is cell-based. The text has this: In order to estimate the rate and extent of PS exposure on the platelet plasma membrane we utilized fluorescence-labeled PS (Reference 62). Prior reports indicate that platelets translocate NBD-PS to the inner leaflet of the plasma membrane, like unlabeled PS. When stimulated platelets transfer NBD-PS to the outer leaflet of the plasma membrane it is rapidly exchanged into delipidated albumin that is present in the buffer. Thus, translocation of NBD-PS to the outer plasma membrane causes a net loss in cell fluorescence. NBD-PS was loaded into membranes of resting platelets from donor vesicles prior to platelet purification. The rate and extent of platelet fluorescence loss provide an estimate of the rate and extent of plasma membrane PS exposure.
During the first minute after addition of TRAP the fluorescence loss was 12±1.8% vs. 5±2.5% for control platelets. Stimulation with 10 μM A23187 led to the same rate of fluorescence loss during the first minute but the rate was maintained so that after 8 min. >90% of NBD fluorescence was lost (FIG. 12B inset).

The subject of assay [3] is platelets. In words: Lactadherin binding to A23187-stimulated platelets (flow cytometry). It counts as cell-based. Particulars: Platelet; 0.25 μM A23187 vs. unstimulated platelets; read-out: net increase of fluorescence (bound lactadherin). On the procedure: We asked whether platelets have a stimulated state when they bind lactadherin but not annexin V, consistent with the hypothesis that platelets have the capacity to regulate PS exposure at a level less than 2.5% PS (FIG. 8A-C). Platelets were incubated with fluorescein labeled lactadherin and Alexa Fluor 647 labeled annexin V. Because competition of either protein for the other's binding sites was <20% at these concentrations (FIG. 7C, 7D) we utilized both proteins simultaneously. The gain on the flow cytometer was set so that the intrinsic fluorescence of unstimulated platelets placed the population in the lower left quadrant of the display (FIG. 8A). […] Comparison with the unstimulated state indicates a net increase of fluorescence to approximately 3-fold. (FIG. 8B). The cross-hair allows comparison of modal fluorescence values for resting platelets vs. stimulated platelets.

In assay [4] the target is T1, bovine lactadherin (fluorescein-labeled, purified from bovine milk). The assay is described as follows: Equilibrium binding of fluorescein-labeled lactadherin to lipospheres (membranes on glass microspheres, flow cytometry). Conditions: for binding of lactadherin: lipospheres with 2% synthetic dioleoyl lipid, 20% PE, balance PC, FIG. 5A. How it is done:
as §1
as §2, with “Noise was reduced during analysis by eliminating events with forward and side scatter values different from those characteristic of the lipospheres.” left out
The equilibrium binding of lactadherin to lipospheres was fitted by non-linear, least squares data analysis using the standard binding model (assuming a single class of binding sites and that the fraction of bound lactadherin was small at each concentration evaluated). […]
Fluorescein-labeled lactadherin interacted with phospholipid bilayers supported by glass microspheres (lipospheres). […] After 10 minutes, we measured bound lactadherin using flow cytometry (FIG. 1A). […]
In general terms: Flow cytometry measures light scatter and fluorescence of single cells or particles in a stream.

For assay [5], the target named is T2, Recombinant human factor VIII (Homo sapiens, UniProt P00451).
T2 construct: Gift from D. Pittman, Genetics Institute, Cambridge, Mass
T2 sequence (P00451 20-2351): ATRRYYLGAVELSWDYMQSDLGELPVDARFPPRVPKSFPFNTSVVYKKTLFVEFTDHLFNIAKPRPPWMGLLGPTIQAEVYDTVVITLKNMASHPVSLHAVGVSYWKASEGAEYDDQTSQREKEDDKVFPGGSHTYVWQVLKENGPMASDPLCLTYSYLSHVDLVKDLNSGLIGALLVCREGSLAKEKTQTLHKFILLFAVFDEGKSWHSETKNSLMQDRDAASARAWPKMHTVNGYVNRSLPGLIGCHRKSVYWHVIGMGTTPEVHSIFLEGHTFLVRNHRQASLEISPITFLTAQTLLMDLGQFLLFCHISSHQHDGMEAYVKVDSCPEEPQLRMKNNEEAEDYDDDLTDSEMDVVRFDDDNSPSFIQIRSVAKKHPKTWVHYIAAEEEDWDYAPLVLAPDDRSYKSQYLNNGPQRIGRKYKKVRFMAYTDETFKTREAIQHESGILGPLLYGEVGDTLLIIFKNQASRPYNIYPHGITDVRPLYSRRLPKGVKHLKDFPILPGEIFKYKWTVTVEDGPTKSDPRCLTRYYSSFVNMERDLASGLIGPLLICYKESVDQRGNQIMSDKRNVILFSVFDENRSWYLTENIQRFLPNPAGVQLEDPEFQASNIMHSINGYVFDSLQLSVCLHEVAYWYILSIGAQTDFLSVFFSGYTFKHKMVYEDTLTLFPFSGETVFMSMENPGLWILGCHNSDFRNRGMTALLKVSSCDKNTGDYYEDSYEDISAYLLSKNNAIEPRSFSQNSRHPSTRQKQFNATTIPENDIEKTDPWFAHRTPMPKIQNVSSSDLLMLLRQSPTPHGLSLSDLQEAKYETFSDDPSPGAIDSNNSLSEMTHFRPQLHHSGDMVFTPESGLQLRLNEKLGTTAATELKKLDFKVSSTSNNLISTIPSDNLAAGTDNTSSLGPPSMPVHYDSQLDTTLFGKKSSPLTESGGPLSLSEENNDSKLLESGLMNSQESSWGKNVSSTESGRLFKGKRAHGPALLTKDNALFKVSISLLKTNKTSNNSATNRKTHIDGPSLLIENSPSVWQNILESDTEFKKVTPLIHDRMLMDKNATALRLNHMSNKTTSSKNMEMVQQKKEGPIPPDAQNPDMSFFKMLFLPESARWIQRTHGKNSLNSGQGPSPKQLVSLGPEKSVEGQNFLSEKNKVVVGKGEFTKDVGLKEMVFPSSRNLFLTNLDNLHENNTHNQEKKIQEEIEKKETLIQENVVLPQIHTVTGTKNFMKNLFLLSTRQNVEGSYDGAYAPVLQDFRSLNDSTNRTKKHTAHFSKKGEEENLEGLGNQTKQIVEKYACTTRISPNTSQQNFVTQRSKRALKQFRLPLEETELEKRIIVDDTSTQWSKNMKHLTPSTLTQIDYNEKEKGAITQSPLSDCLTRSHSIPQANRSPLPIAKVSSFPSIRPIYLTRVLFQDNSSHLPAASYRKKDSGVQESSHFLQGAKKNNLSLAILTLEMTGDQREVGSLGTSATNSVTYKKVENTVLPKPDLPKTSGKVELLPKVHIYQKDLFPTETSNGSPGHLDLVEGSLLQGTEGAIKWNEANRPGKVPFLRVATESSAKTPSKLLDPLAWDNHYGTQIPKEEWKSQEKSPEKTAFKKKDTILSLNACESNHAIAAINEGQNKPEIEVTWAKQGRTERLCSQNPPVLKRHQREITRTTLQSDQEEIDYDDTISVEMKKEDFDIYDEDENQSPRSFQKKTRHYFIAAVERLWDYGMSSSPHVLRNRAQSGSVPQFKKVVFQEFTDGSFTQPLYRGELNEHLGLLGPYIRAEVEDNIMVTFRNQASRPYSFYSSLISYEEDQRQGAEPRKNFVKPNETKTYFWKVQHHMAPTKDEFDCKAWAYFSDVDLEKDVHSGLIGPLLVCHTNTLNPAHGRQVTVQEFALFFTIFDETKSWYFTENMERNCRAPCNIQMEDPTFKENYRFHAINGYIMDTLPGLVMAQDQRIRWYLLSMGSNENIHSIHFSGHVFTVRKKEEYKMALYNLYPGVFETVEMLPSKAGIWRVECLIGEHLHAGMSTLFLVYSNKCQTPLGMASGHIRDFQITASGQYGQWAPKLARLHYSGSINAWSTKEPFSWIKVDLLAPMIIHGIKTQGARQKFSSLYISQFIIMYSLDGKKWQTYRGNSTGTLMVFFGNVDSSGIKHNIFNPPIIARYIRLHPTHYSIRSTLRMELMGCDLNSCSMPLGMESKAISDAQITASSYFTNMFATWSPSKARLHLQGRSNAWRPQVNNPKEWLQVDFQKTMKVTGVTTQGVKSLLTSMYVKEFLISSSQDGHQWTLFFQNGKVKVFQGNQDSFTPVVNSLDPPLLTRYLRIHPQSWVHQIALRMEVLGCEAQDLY
In words: Binding of factor VIII to lipospheres. Conditions: lipospheres containing 4% Ptd-L-Ser; read-out: dissociation constant of factor VIII for lipospheres. From the text:
Human factor V was obtained from Haematologic Technologies Inc. (Burlington, Vt.). Recombinant human factor VIII was a gift from D. Pittman of Genetics Institute, Cambridge, Mass. Bovine brain phosphatidylserine (Ptd-L-Ser), egg yolk phosphatidylethanolamine (PE), bovine liver phosphatidylinositol, egg sphingomyelin, egg phosphatidylcholine (PC) and dioleoyl PC were obtained from Avanti Polar Lipids (Alabaster, AL). Phospholipase D from streptomyces, phospho-L-serine phospho-D-serine, L-serine and D-serine were obtained from Sigma.
Factor VIII and factor V were labeled with fluorescein maleimide (Molecular Probes, Eugene, Oreg.) as previously described (References 17 and 37). Protein concentration of factor VIII was determined using a Micro-BCA Assay (Pierce, Rockford, Ill.) using bovine albumin as a standard.
Glass microspheres of 1.6 μm nominal diameter (Duke Scientific, Palo Alto, Calif.) were cleaned, size-restricted and covered with a phospholipid bilayer as previously described (Reference 17). […] Fluorescein-labeled factor VIII (4 nM) was incubated with lactadherin or annexin V for 15 min at room temperature, the mixture was added to lipospheres for an additional 10 minutes, and membrane-bound fVIII was measured by flow cytometry. […] Mean log fluorescence was converted to linear fluorescence for values depicted in the figures. […]

Assay [6] concerns the target T1, bovine lactadherin (fluorescein-labeled, purified from bovine milk). The assay is described as follows: Competition of soluble head group for fluorescein-lactadherin binding to lipospheres (flow cytometry). Conditions: for inhibition of lactadherin binding: concentrations as high as 0.35 M.
Experimental: Flow Cytometry Phospholipid Binding Assay
Glass microspheres of 1.6 μm nominal diameter (Duke Scientific, Palo Alto, Calif.) were cleaned, size-restricted and covered with a phospholipid bilayer as previously described (Reference 17). Membranes supported by glass microspheres were washed three times in 0.15 M NaCl, 0.02 M Tris-HCl, 0.1% defatted bovine albumin, 10 μM egg PC as sonicated vesicles; stored at 4° C.; and used within 8 hours of synthesis. […] This procedure was performed on 150 μl aliquots with an approximate liposphere concentration of 1×10^6/ml using a Becton Dickinson FACSCalibur flow cytometer. Data acquisition was triggered by forward light scatter with all photomultipliers in the log mode. Noise was reduced during analysis by eliminating events with forward and side scatter values different from those characteristic of the lipospheres. Mean log fluorescence was converted to linear fluorescence for values depicted in the figures. Only experiments in which the fluorescence histogram indicated a log normal distribution, as judged by inspection, were analyzed quantitatively. Flow cytometry experiments were performed in 0.14 M NaCl, 0.02 M Trizma-HCl, 0.1% bovine albumin, pH 7.5 with CaCl2 as specified for individual experiments.
Fluorescein-labeled lactadherin was incubated with 10^6 lipospheres/ml in Tris-buffered saline, 1.5 mM CaCl2, 0.1% BSA for 10 min. prior to evaluation of bound lactadherin by flow cytometry. The final concentrations of lactadherin were varied to estimate the affinity and stoichiometry of bound lactadherin.
To estimate the stereoselective affinity of lactadherin for the L-serine containing head group of Ptd-L-Ser, we performed binding inhibition studies (FIG. 5B).

Consider nine molecules from patent US7771956B2, “Method for detecting the presence of a phospholipid” (Brigham & Women's Hospital, Inc., priority 2003, dated 2010).

Entries after “also recorded” stand apart in the source; their conditions may differ. Some results are limits rather than exact numbers.

phosphatidylinositol: the “support of lactadherin binding” value in assay [1] was “does not support high affinity binding of lactadherin; also recorded: supported low affinity binding of lactadherin”. On to `CNc1ccc2oc(C[C@H]3O[C@@]4(CC[C@H]3C)O[C@H]([C@H](C)C(=O)c3ccc[nH]3)[C@H](C)C[C@H]4C)nc2c1C(=O)O` [A23187], for which the NBD fluorescence lost in assay [2] is recorded as > 90%. In addition, in assay [3], the fold induction at 0.25 µM was ~3. With phosphatidylserine [Ptd-L-Ser], the “apparent KD, 1% Ptd-L-Ser vs. 4% Ptd-L-Ser membranes (fold difference)” value in assay [4] (lipospheres of 1% vs. 4% Ptd-L-Ser) was ≤ 2 fold. The Kd was 3.3 ± 0.4 nM in assay [4] (membranes Ptd-L-Ser:PE:PC 4:20:76 on glass microspheres, 10 min, read-out: KD (apparent)); 4.8 nM in assay [5]; > 0.2 nM in assay [1] (sonicated vesicles of 16% Ptd-L-Ser, n<60, read-out: KD (lower limit)). On to phosphatidylcholine [PC], for which the “support of lactadherin binding” value in assay [1] is listed as “supported low affinity lactadherin binding”. As for phosphatidylethanolamine [PE], the “effect on number of binding sites or affinity for lactadherin” value in assay [1] was “did not influence the apparent number of binding sites or affinity for lactadherin”; in assay [1] (listed as phosphatidylethanolamine) it was “did not enhance the apparent affinity or number of lactadherin binding sites”. On to `N[C@H](COP(=O)(O)O)C(=O)O` [phospho-D-serine], for which, in assay [6], the “inhibition of lactadherin binding” value is given as ≤ 25%. Further, in assay [6] (inhibition of lactadherin binding to lipospheres), the “fold less effective as an inhibitor (vs. phospho-L-serine)” value was “at least 4 fold”.

In the case of phosphate, the “inhibition of lactadherin binding” value in assay [6] is on record as ≤ 25%.

`CCCCCCCC/C=C\CCCCCCCC(=O)OC[C@H](COP(=O)(O)OC[C@H](N)C(=O)O)OC(=O)CCCCCCC/C=C\CCCCCCCC` [dioleoyl Ptd-L-Ser]: the binding of lactadherin entry in assay [4] is reported as “Lactadherin bound to membranes; also recorded: bound lactadherin with high affinity, comparable to Ptd-L-Ser from biologic sources”. As to `CCCCCCCC/C=C\CCCCCCCC(=O)OC[C@H](COP(=O)(O)OC[C@@H](N)C(=O)O)OC(=O)CCCCCCC/C=C\CCCCCCCC` [dioleoyl Ptd-D-Ser], in assay [4] (listed as Ptd-D-Ser), the binding of lactadherin result is recorded as “did not support binding of lactadherin above the level supported by control membranes of PE:PC 20:80”.
